Legend:
[1] = Toxicity in ip dosed Mus musculus ddY (mouse) assessed as mortality after 1 to 7 days; type: organism-based; conditions: in vivo
[2] = Toxicity in Mus musculus ddY (mouse) assessed as mortality at 350 mg/kg, ip after 1 day; type: organism-based; set-up: dose 350 mg/kg, route intraperitoneal; conditions: in vivo
[3] = Toxicity in Mus musculus ddY (mouse) assessed as mortality at 400 mg/kg, ip after 4 days; type: organism-based; set-up: dose 400 mg/kg, route intraperitoneal; conditions: in vivo
[4] = tested on: Brassica rapa subsp. oleifera; test: Growth inhibition of Brassica rapa subsp. oleifera assessed as root growth at 5 x 10^-5 M after 7 days; type: functional
[5] = Toxicity in Mus musculus ddY (mouse) assessed as mortality at 400 mg/kg, ip after 7 days; type: organism-based; set-up: dose 400 mg/kg, route intraperitoneal; conditions: in vivo
[6] = tested on: Brassica rapa subsp. oleifera; test: Growth inhibition of Brassica rapa subsp. oleifera assessed as chlorophyll b level at 1 x 10^-4 M after 7 days; type: functional; set-up: scale not given: the % may be the effect or the level left
[7] = tested on: Brassica rapa subsp. oleifera; test: Growth inhibition of Brassica rapa subsp. oleifera assessed as chlorophyll b level at 3 x 10^-5 M after 7 days; type: functional; set-up: scale not given: the % may be the effect or the level left
[8] = Toxicity in Mus musculus ddY (mouse) assessed as mortality at 300 mg/kg, ip after 2 days; type: organism-based; set-up: dose 300 mg/kg, route intraperitoneal; conditions: in vivo
[9] = tested on: Brassica rapa subsp. oleifera; test: Growth inhibition of Brassica rapa subsp. oleifera assessed as chlorophyll a level at 3 x 10^-5 M after 7 days; type: functional; set-up: scale not given: the % may be the effect or the level left
[10] = Toxicity in Mus musculus ddY (mouse) assessed as mortality at 375 mg/kg, ip after 3 days; type: organism-based; set-up: dose 375 mg/kg, route intraperitoneal; conditions: in vivo
[11] = Toxicity in Mus musculus ddY (mouse) assessed as mortality at 275 mg/kg, ip after 3 days; type: organism-based; set-up: dose 275 mg/kg, route intraperitoneal; conditions: in vivo
[12] = Toxicity in Mus musculus ddY (mouse) assessed as mortality at 275 mg/kg, ip after 4 days; type: organism-based; set-up: dose 275 mg/kg, route intraperitoneal; conditions: in vivo
[13] = Toxicity in Mus musculus ddY (mouse) assessed as mortality at 275 mg/kg, ip after 1 day; type: organism-based; set-up: dose 275 mg/kg, route intraperitoneal; conditions: in vivo
[14] = tested on: Brassica rapa subsp. oleifera; test: Growth inhibition of Brassica rapa subsp. oleifera assessed as total chlorophyll level at 1 x 10^-4 M after 7 days; type: functional; set-up: scale not given: the % may be the effect or the level left
[15] = Toxicity in Mus musculus ddY (mouse) assessed as mortality at 325 mg/kg, ip after 5 days; type: organism-based; set-up: dose 325 mg/kg, route intraperitoneal; conditions: in vivo
[16] = Toxicity in Mus musculus ddY (mouse) assessed as mortality at 300 mg/kg, ip after 1 day; type: organism-based; set-up: dose 300 mg/kg, route intraperitoneal; conditions: in vivo
[17] = Toxicity in Mus musculus ddY (mouse) assessed as mortality at 375 mg/kg, ip after 5 days; type: organism-based; set-up: dose 375 mg/kg, route intraperitoneal; conditions: in vivo
[18] = tested on: Brassica rapa subsp. oleifera; test: Growth inhibition of Brassica rapa subsp. oleifera assessed as total chlorophyll level at 3 x 10^-4 M after 7 days; type: functional; set-up: scale not given: the % may be the effect or the level left
[19] = Toxicity in Mus musculus ddY (mouse) assessed as mortality at 325 mg/kg, ip after 6 days; type: organism-based; set-up: dose 325 mg/kg, route intraperitoneal; conditions: in vivo
[20] = Toxicity in Mus musculus ddY (mouse) assessed as mortality at 400 mg/kg, ip after 6 days; type: organism-based; set-up: dose 400 mg/kg, route intraperitoneal; conditions: in vivo
[21] = Toxicity in Mus musculus ddY (mouse) assessed as mortality at 375 mg/kg, ip after 1 day; type: organism-based; set-up: dose 375 mg/kg, route intraperitoneal; conditions: in vivo
[22] = tested on: Brassica rapa subsp. oleifera; test: Growth inhibition of Brassica rapa subsp. oleifera assessed as total chlorophyll level at 5 x 10^-5 M after 7 days; type: functional; set-up: scale not given: the % may be the effect or the level left
[23] = Toxicity in Mus musculus ddY (mouse) assessed as mortality at 400 mg/kg, ip after 5 days; type: organism-based; set-up: dose 400 mg/kg, route intraperitoneal; conditions: in vivo
[24] = Toxicity in Mus musculus ddY (mouse) assessed as mortality at 350 mg/kg, ip after 6 days; type: organism-based; set-up: dose 350 mg/kg, route intraperitoneal; conditions: in vivo
[25] = tested on: Brassica rapa subsp. oleifera; test: Growth inhibition of Brassica rapa subsp. oleifera assessed as chlorophyll b level at 3 x 10^-4 M after 7 days; type: functional; set-up: scale not given: the % may be the effect or the level left
[26] = Toxicity in Mus musculus ddY (mouse) assessed as mortality at 350 mg/kg, ip after 4 days; type: organism-based; set-up: dose 350 mg/kg, route intraperitoneal; conditions: in vivo
[27] = Toxicity in Mus musculus ddY (mouse) assessed as mortality at 375 mg/kg, ip after 7 days; type: organism-based; set-up: dose 375 mg/kg, route intraperitoneal; conditions: in vivo
[28] = Toxicity in Mus musculus ddY (mouse) assessed as mortality at 400 mg/kg, ip after 3 days; type: organism-based; set-up: dose 400 mg/kg, route intraperitoneal; conditions: in vivo
[29] = Toxicity in Mus musculus ddY (mouse) assessed as mortality at 325 mg/kg, ip after 2 days; type: organism-based; set-up: dose 325 mg/kg, route intraperitoneal; conditions: in vivo
[30] = Toxicity in Mus musculus ddY (mouse) assessed as mortality at 350 mg/kg, ip after 2 days; type: organism-based; set-up: dose 350 mg/kg, route intraperitoneal; conditions: in vivo
[31] = Toxicity in Mus musculus ddY (mouse) assessed as mortality at 300 mg/kg, ip after 4 days; type: organism-based; set-up: dose 300 mg/kg, route intraperitoneal; conditions: in vivo
[32] = tested on: Brassica rapa subsp. oleifera; test: Growth inhibition of Brassica rapa subsp. oleifera assessed as chlorophyll a level at 1 x 10^-4 M after 7 days; type: functional; set-up: scale not given: the % may be the effect or the level left
[33] = Toxicity in Mus musculus ddY (mouse) assessed as mortality at 325 mg/kg, ip after 7 days; type: organism-based; set-up: dose 325 mg/kg, route intraperitoneal; conditions: in vivo
[34] = Toxicity in Mus musculus ddY (mouse) assessed as mortality at 400 mg/kg, ip after 1 day; type: organism-based; set-up: dose 400 mg/kg, route intraperitoneal; conditions: in vivo
[35] = tested on: Brassica rapa subsp. oleifera; test: Growth inhibition of Brassica rapa subsp. oleifera assessed as root growth at 3 x 10^-4 M after 7 days; type: functional
[36] = Toxicity in Mus musculus ddY (mouse) assessed as mortality at 300 mg/kg, ip after 6 days; type: organism-based; set-up: dose 300 mg/kg, route intraperitoneal; conditions: in vivo
[37] = Toxicity in Mus musculus ddY (mouse) assessed as mortality at 375 mg/kg, ip after 2 days; type: organism-based; set-up: dose 375 mg/kg, route intraperitoneal; conditions: in vivo
[38] = tested on: Brassica rapa subsp. oleifera; test: Growth inhibition of Brassica rapa subsp. oleifera assessed as total chlorophyll level at 3 x 10^-5 M after 7 days; type: functional; set-up: scale not given: the % may be the effect or the level left
[39] = tested on: Brassica rapa subsp. oleifera; test: Growth inhibition of Brassica rapa subsp. oleifera assessed as chlorophyll a level at 3 x 10^-4 M after 7 days; type: functional; set-up: scale not given: the % may be the effect or the level left
[40] = Toxicity in Mus musculus ddY (mouse) assessed as mortality at 350 mg/kg, ip after 3 days; type: organism-based; set-up: dose 350 mg/kg, route intraperitoneal; conditions: in vivo
[41] = Toxicity in Mus musculus ddY (mouse) assessed as mortality at 325 mg/kg, ip after 3 days; type: organism-based; set-up: dose 325 mg/kg, route intraperitoneal; conditions: in vivo
[42] = Toxicity in Mus musculus ddY (mouse) assessed as mortality at 275 mg/kg, ip after 6 days; type: organism-based; set-up: dose 275 mg/kg, route intraperitoneal; conditions: in vivo
[43] = Toxicity in Mus musculus ddY (mouse) assessed as mortality at 400 mg/kg, ip after 2 days; type: organism-based; set-up: dose 400 mg/kg, route intraperitoneal; conditions: in vivo
[44] = Toxicity in Mus musculus ddY (mouse) assessed as mortality at 350 mg/kg, ip after 7 days; type: organism-based; set-up: dose 350 mg/kg, route intraperitoneal; conditions: in vivo
[45] = Toxicity in Mus musculus ddY (mouse) assessed as mortality at 300 mg/kg, ip after 5 days; type: organism-based; set-up: dose 300 mg/kg, route intraperitoneal; conditions: in vivo
[46] = Toxicity in Mus musculus ddY (mouse) assessed as mortality at 325 mg/kg, ip after 1 day; type: organism-based; set-up: dose 325 mg/kg, route intraperitoneal; conditions: in vivo
[47] = Toxicity in Mus musculus ddY (mouse) assessed as mortality at 375 mg/kg, ip after 4 days; type: organism-based; set-up: dose 375 mg/kg, route intraperitoneal; conditions: in vivo
[48] = tested on: Brassica rapa subsp. oleifera; test: Growth inhibition of Brassica rapa subsp. oleifera assessed as chlorophyll b level at 5 x 10^-5 M after 7 days; type: functional; set-up: scale not given: the % may be the effect or the level left
[49] = tested on: Brassica rapa subsp. oleifera; test: Growth inhibition of Brassica rapa subsp. oleifera assessed as root growth at 3 x 10^-5 M after 7 days; type: functional
[50] = Toxicity in Mus musculus ddY (mouse) assessed as mortality at 375 mg/kg, ip after 6 days; type: organism-based; set-up: dose 375 mg/kg, route intraperitoneal; conditions: in vivo
[51] = Toxicity in Mus musculus ddY (mouse) assessed as mortality at 350 mg/kg, ip after 5 days; type: organism-based; set-up: dose 350 mg/kg, route intraperitoneal; conditions: in vivo
[52] = Toxicity in Mus musculus ddY (mouse) assessed as mortality at 300 mg/kg, ip after 3 days; type: organism-based; set-up: dose 300 mg/kg, route intraperitoneal; conditions: in vivo
[53] = Toxicity in Mus musculus ddY (mouse) assessed as mortality at 300 mg/kg, ip after 7 days; type: organism-based; set-up: dose 300 mg/kg, route intraperitoneal; conditions: in vivo
[54] = Toxicity in Mus musculus ddY (mouse) assessed as mortality at 275 mg/kg, ip after 5 days; type: organism-based; set-up: dose 275 mg/kg, route intraperitoneal; conditions: in vivo
[55] = Toxicity in Mus musculus ddY (mouse) assessed as mortality at 325 mg/kg, ip after 4 days; type: organism-based; set-up: dose 325 mg/kg, route intraperitoneal; conditions: in vivo
[56] = Toxicity in Mus musculus ddY (mouse) assessed as mortality at 275 mg/kg, ip after 7 days; type: organism-based; set-up: dose 275 mg/kg, route intraperitoneal; conditions: in vivo
[57] = tested on: Brassica rapa subsp. oleifera; test: Growth inhibition of Brassica rapa subsp. oleifera assessed as chlorophyll a level at 5 x 10^-5 M after 7 days; type: functional; set-up: scale not given: the % may be the effect or the level left
[58] = Toxicity in Mus musculus ddY (mouse) assessed as mortality at 275 mg/kg, ip after 2 days; type: organism-based; set-up: dose 275 mg/kg, route intraperitoneal; conditions: in vivo
[59] = tested on: Brassica rapa subsp. oleifera; test: Growth inhibition of Brassica rapa subsp. oleifera assessed as root growth at 1 x 10^-4 M after 7 days; type: functional

O=C1CSC(=S)N1 [RHODANINE]
LD50 [1]: 311 mg/kg | mortality at 24 h [2]: 20% | mortality at 96 h [3]: 100% | Root length [4]: 42.5 mm | mortality at 168 h [5]: 100% | Activity [6]: 2.41% | Activity [7]: 4.8% | mortality at 48 h [8]: 40% | Activity [9]: 14.1% | mortality at 72 h [10]: 100% | mortality at 72 h [11]: 0% | mortality at 96 h [12]: 0% | mortality at 24 h [13]: 0% | Activity [14]: 9.16% | mortality at 120 h [15]: 80% | mortality at 24 h [16]: 0% | mortality at 120 h [17]: 100% | Activity [18]: 3.52% | mortality at 144 h [19]: 80% | mortality at 144 h [20]: 100% | mortality at 24 h [21]: 80% | Activity [22]: 19.17% | mortality at 120 h [23]: 100% | mortality at 144 h [24]: 80% | Activity [25]: 1.44% | mortality at 96 h [26]: 80% | mortality at 168 h [27]: 100% | mortality at 72 h [28]: 100% | mortality at 48 h [29]: 80% | mortality at 48 h [30]: 80% | mortality at 96 h [31]: 40% | Activity [32]: 6.76% | mortality at 168 h [33]: 80% | mortality at 24 h [34]: 80% | Activity [35]: 11.3 mm | mortality at 144 h [36]: 40% | mortality at 48 h [37]: 100% | Activity [38]: 19.19% | Activity [39]: 2.09% | mortality at 72 h [40]: 80% | mortality at 72 h [41]: 80% | mortality at 144 h [42]: 0% | mortality at 48 h [43]: 100% | mortality at 168 h [44]: 80% | mortality at 120 h [45]: 40% | mortality at 24 h [46]: 40% | mortality at 96 h [47]: 100% | Activity [48]: 5.08% | Root length [49]: 46 mm | mortality at 144 h [50]: 100% | mortality at 120 h [51]: 80% | mortality at 72 h [52]: 40% | mortality at 168 h [53]: 40% | mortality at 120 h [54]: 0% | mortality at 96 h [55]: 80% | mortality at 168 h [56]: 0% | Activity [57]: 14.1% | mortality at 48 h [58]: 0% | Activity [59]: 38.7 mm

Reference: ChEMBL document CHEMBL3044763, “Inhibitory Activities of Rhodanine Derivatives on Plant Growth” (Biosci Biotechnol Biochem, 1996)
